System: 889142-216-R-J1-PDC complex spheroid viability
Assay: Anticancer human tumor 889142-216-R-J1-PDC patient-derived bladder carcinoma cell line growth inhibition [POLQ]
Settings: for IC50: curve of first compound; for viability, T/C: stronger effect = lower value; active = viability on the fitted dose curve at most 10% of control; inactive = the rest
How it was run: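 PDC + HUVEC + MSC complex spheroids; POLQ inhibitors ± partner drugs; top conc. at/near clinical Cmax, else 10 microM (SN-38 1 microM), half-log dilutions; 37 degrees C, 5% CO2.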

[1] = second compound 0.0316 µM, first compound 0.0316 µM
[2] = second compound 0.0316 µM, first compound 0.1 µM
[3] = second compound 0.0316 µM, first compound 0.316 µM
[4] = second compound 0.0316 µM, first compound 1 µM
[5] = second compound 0.0316 µM, first compound 3.16 µM
[6] = second compound 0.0316 µM, first compound 10 µM
[7] = second compound 0.1 µM, first compound 0.0316 µM
[8] = second compound 0.1 µM, first compound 0.1 µM
[9] = second compound 0.1 µM, first compound 0.316 µM
[10] = second compound 0.1 µM, first compound 1 µM
[11] = second compound 0.1 µM, first compound 3.16 µM
[12] = second compound 0.1 µM, first compound 10 µM
[13] = second compound 0.316 µM, first compound 0.0316 µM
[14] = second compound 0.316 µM, first compound 0.1 µM
[15] = second compound 0.316 µM, first compound 0.316 µM
[16] = second compound 0.316 µM, first compound 1 µM
[17] = second compound 0.316 µM, first compound 3.16 µM
[18] = second compound 0.316 µM, first compound 10 µM
[19] = second compound 1 µM, first compound 0.0316 µM
[20] = second compound 1 µM, first compound 0.1 µM
[21] = second compound 1 µM, first compound 0.316 µM
[22] = second compound 1 µM, first compound 1 µM
[23] = second compound 1 µM, first compound 3.16 µM
[24] = second compound 1 µM, first compound 10 µM
[25] = second compound 3.16 µM, first compound 0.0316 µM
[26] = second compound 3.16 µM, first compound 0.1 µM
[27] = second compound 3.16 µM, first compound 0.316 µM
[28] = second compound 3.16 µM, first compound 1 µM
[29] = second compound 3.16 µM, first compound 3.16 µM
[30] = second compound 3.16 µM, first compound 10 µM
[31] = second compound 10 µM, first compound 0.0316 µM
[32] = second compound 10 µM, first compound 0.1 µM
[33] = second compound 10 µM, first compound 0.316 µM
[34] = second compound 10 µM, first compound 1 µM
[35] = second compound 10 µM, first compound 3.16 µM
[36] = second compound 10 µM, first compound 10 µM
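Note: spheroids exposed to compounds for seven days.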
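Throughout, for viability, T/C: 100% = DMSO vehicle control viability.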

CC1COCCN1c1cc(C2(S(C)(=N)=O)CC2)nc(-c2ccnc3[nH]ccc23)n1 (stereo not drawn) + Cc1cccc(N(C)C(=O)C2C(O)CCN2c2nc(C)cc(C(F)(F)F)c2C#N)c1
1.4 µM: IC50 (second compound 3.16 µM)
3.02 µM: IC50 (second compound 0.316 µM)
2.27 µM: IC50 (second compound 1 µM)
7.04 µM: IC50 (second compound 0.0316 µM)
10 µM: IC50 (second compound 0.1 µM)
inactive: viability, T/C [1] 109% | viability, T/C [2] 97.9% | viability, T/C [3] 64.5% | viability, T/C [4] 76% | viability, T/C [5] 49.4% | viability, T/C [6] 48.4% | viability, T/C [7] 92.9% | viability, T/C [8] 128% | viability, T/C [9] 82% | viability, T/C [10] 58.1% | viability, T/C [11] 49.5% | viability, T/C [12] 45.8% | viability, T/C [13] 128% | viability, T/C [14] 97% | viability, T/C [15] 85% | viability, T/C [16] 65.4% | viability, T/C [17] 43.7% | viability, T/C [18] 41.8% | viability, T/C [19] 111% | viability, T/C [20] 106% | viability, T/C [21] 70.7% | viability, T/C [22] 60.1% | viability, T/C [23] 50% | viability, T/C [24] 41.5% | viability, T/C [25] 92.4% | viability, T/C [26] 94.4% | viability, T/C [27] 72.3% | viability, T/C [28] 53.9% | viability, T/C [29] 44.5% | viability, T/C [30] 41.5% | viability, T/C [31] 85.6% | viability, T/C [32] 94.6% | viability, T/C [33] 89.4% | viability, T/C [34] 48.8% | viability, T/C [35] 50.1% | viability, T/C [36] 38.8%
0.966 µM: IC50 (second compound 10 µM)

CCCS(=O)(=O)Nc1ccc(F)c(C(=O)c2c[nH]c3ncc(-c4ccc(Cl)cc4)cc23)c1F + Cc1cccc(N(C)C(=O)C2C(O)CCN2c2nc(C)cc(C(F)(F)F)c2C#N)c1
8.82 µM: IC50 (second compound 3.16 µM)
inactive: viability, T/C [1] 100% | viability, T/C [2] 116% | viability, T/C [3] 98.7% | viability, T/C [4] 105% | viability, T/C [5] 83.5% | viability, T/C [6] 50.5% | viability, T/C [7] 121% | viability, T/C [8] 101% | viability, T/C [9] 91% | viability, T/C [10] 96.5% | viability, T/C [11] 81.3% | viability, T/C [12] 48.8% | viability, T/C [13] 110% | viability, T/C [14] 86.7% | viability, T/C [15] 93.3% | viability, T/C [16] 91.7% | viability, T/C [17] 72.1% | viability, T/C [18] 60.5% | viability, T/C [19] 94.9% | viability, T/C [20] 91.1% | viability, T/C [21] 92.7% | viability, T/C [22] 90.5% | viability, T/C [23] 66.8% | viability, T/C [24] 48.9% | viability, T/C [25] 101% | viability, T/C [26] 96% | viability, T/C [27] 81.1% | viability, T/C [28] 79.2% | viability, T/C [29] 75.2% | viability, T/C [30] 44.9% | viability, T/C [31] 65.1% | viability, T/C [32] 86.2% | viability, T/C [33] 90.1% | viability, T/C [34] 66.3% | viability, T/C [35] 67% | viability, T/C [36] 38.5%
6.13 µM: IC50 (second compound 10 µM)
9.29 µM: IC50 (second compound 1 µM)
> 10 µM: IC50 (second compound 0.0316 µM) | IC50 (second compound 0.1 µM) | IC50 (second compound 0.316 µM)

CCc1cc2c(N3CCc4c(cc(Cn5ccnc5)cc4-c4cn(C)nc4C(F)(F)F)C3=O)cc(C)nc2c(OC)n1 + Cc1cccc(N(C)C(=O)C2C(O)CCN2c2nc(C)cc(C(F)(F)F)c2C#N)c1
inactive: viability, T/C [1] 109% | viability, T/C [2] 132% | viability, T/C [3] 121% | viability, T/C [4] 108% | viability, T/C [5] 91.3% | viability, T/C [6] 80.8% | viability, T/C [7] 119% | viability, T/C [8] 98.8% | viability, T/C [9] 105% | viability, T/C [10] 114% | viability, T/C [11] 109% | viability, T/C [12] 96.8% | viability, T/C [13] 113% | viability, T/C [14] 111% | viability, T/C [15] 137% | viability, T/C [16] 137% | viability, T/C [17] 130% | viability, T/C [18] 83.9% | viability, T/C [19] 91% | viability, T/C [20] 106% | viability, T/C [21] 143% | viability, T/C [22] 112% | viability, T/C [23] 94.7% | viability, T/C [24] 84.3% | viability, T/C [25] 104% | viability, T/C [26] 121% | viability, T/C [27] 114% | viability, T/C [28] 94.9% | viability, T/C [29] 112% | viability, T/C [30] 69.9% | viability, T/C [31] 89.2% | viability, T/C [32] 88.3% | viability, T/C [33] 109% | viability, T/C [34] 144% | viability, T/C [35] 83.7% | viability, T/C [36] 70.8%
> 10 µM: IC50 (second compound 0.0316 µM) | IC50 (second compound 0.1 µM) | IC50 (second compound 0.316 µM) | IC50 (second compound 1 µM) | IC50 (second compound 3.16 µM) | IC50 (second compound 10 µM)

COc1cc2cc(C(=O)CCC(=O)O)sc2cc1OC + Cc1cccc(N(C)C(=O)C2C(O)CCN2c2nc(C)cc(C(F)(F)F)c2C#N)c1
> 10 µM: IC50 (second compound 0.0316 µM) | IC50 (second compound 0.1 µM) | IC50 (second compound 0.316 µM) | IC50 (second compound 1 µM) | IC50 (second compound 3.16 µM) | IC50 (second compound 10 µM)
inactive: viability, T/C [1] 85.5% | viability, T/C [2] 127% | viability, T/C [3] 89.6% | viability, T/C [4] 99.1% | viability, T/C [5] 104% | viability, T/C [6] 76.6% | viability, T/C [7] 76.5% | viability, T/C [8] 101% | viability, T/C [9] 92.7% | viability, T/C [10] 115% | viability, T/C [11] 104% | viability, T/C [12] 90.6% | viability, T/C [13] 109% | viability, T/C [14] 92.6% | viability, T/C [15] 72.3% | viability, T/C [16] 104% | viability, T/C [17] 132% | viability, T/C [18] 74.5% | viability, T/C [19] 100% | viability, T/C [20] 114% | viability, T/C [21] 97.9% | viability, T/C [22] 96.9% | viability, T/C [23] 102% | viability, T/C [24] 66.4% | viability, T/C [25] 96.8% | viability, T/C [26] 85.8% | viability, T/C [27] 89.7% | viability, T/C [28] 94.4% | viability, T/C [29] 104% | viability, T/C [30] 78.9% | viability, T/C [31] 108% | viability, T/C [32] 88.5% | viability, T/C [33] 78.5% | viability, T/C [34] 80.1% | viability, T/C [35] 72.3% | viability, T/C [36] 65.6%

From PubChem BioAssay AID1963831 (Molecular Pharmacology Branch, DTP, NCI, 2024)
